Assay results: PMC4281523 (Pharmaceutical research, 2013)

Tests used:
[1] = cited from earlier work
[2] = format: physicochemical; conditions: soybean oil in fed state medium, absence of lipolysis
[3] = Drug release from SEDDS during in vitro digestion, EPR; format: physicochemical
[4] = format: physicochemical

## CC(C)(Sc1cc(C(C)(C)C)c(O)c(C(C)(C)C)c1)Sc1cc(C(C)(C)C)c(O)c(C(C)(C)C)c1 [Probucol]
[1]
  logP: 8.92

## CC1(C)CC(OC(=O)c2ccccc2)CC(C)(C)N1[O] [TB, TEMPOL benzoate]
[2]
  TB uptake constant into oil, Prel: 3.52e-08 cm/s
[3]
  time of leveling off of drug release: 50 min
[4]; 90 minutes, absence of digestion
  percentage of released drug from SEDDS: 9%
[4]; over 18 hours, absence of digestive enzyme
  drug released from SEDDS: 14%
[1]
  octanol/water partition coefficient (log P): 2.46
